Data reported in patent US20080076740A1, “Antiviral compounds” (GILEAD SCIENCES, INC., priority 2005, published 2008).
pEC50, pIC50: −log10 of the molar value. Where two headings read alike, the source gives them in different places.

Experiments:
[1] = Phosphonate prodrugs in vivo summary (pharmacokinetics); conditions: species not given
HIV [2] = experiment: Antiviral activity in MT-2 cells; format: cell-based
in vitro = conditions: human
Strand Transfer = Strand Transfer (Human immunodeficiency virus type 1 group M subtype B, UniProt P04585); experiment: Integrase strand transfer inhibition; format: biochemical, HIV
HIV [3] = experiment: Anti-HIV activity in MT4 cells; format: cell-based; conditions: Human immunodeficiency virus 1
[4] = Cytotoxicity in MT4 cells; conditions: human
Caco-2 permeability = format: in vitro ADME
[5] = Hepatocyte stability, dog; conditions: hepatocytes
[6] = Hepatocyte stability, human; conditions: hepatocytes
[7] = In vitro PBMC loading rate; format: in vitro ADME; conditions: human
From the text: In one embodiment, the invention is provides compounds capable of accumulating in human PBMC (peripheral blood mononuclear cells). PBMC refer to blood cells having round lymphocytes and monocytes. Physiologically, PBMC are critical components of the mechanism against infection. PBMC may be isolated from heparinized whole blood of normal healthy donors or buffy coats, by standard density gradient centrifugation and harvested from the interface, washed (e.g. phosphate-buffered saline) and stored in freezing medium. PBMC may be cultured in multi-well plates. At various times of culture, supernatant may be either removed for assessment, or cells may be harvested and analyzed (Smith R. etal (2003) Blood 102(7):2532-2540). The compounds of this embodiment may further comprise a phosphonate or phosphonate prodrug. More typically, the phosphonate or phosphonate prodrug can have the structure A^3 as described herein.

Pharmacokinetics in dog = format: in vivo; conditions: for clearance: in vivo, read-out: Cl Dog (converted)
Pharmacokinetics in rat = format: in vivo; conditions: for clearance: in vivo, read-out: Cl Rat (converted)
[8] = human, Caco-2 studies, read-out: Papp

Structure (SMILES) | (head line blank) [1] [mL/min/kg] | Vdβ [1] | half-life [5] [h] | half-life [6] [h] | F [1] | In vitro PBMC Loading Rate [7] [nM/h] | further results
CCOC(=O)[C@H](C)NP(=O)(CCCNC(=O)c1c2c(c(O)c3ncccc13)C(=O)N(Cc1ccc(F)cc1)C2)Oc1ccccc1 (some centres unmarked) [Compound 2016] | 6.7 | 0.7 L/kh |  |  |  |  | 
CCOC(=O)[C@H](C)NP(=O)(CCN(C)C(=O)c1c2c(c(O)c3ncccc13)C(=O)N(Cc1ccc(F)cc1)C2)OCC(F)(F)F (some centres unmarked) [Compound 2018] |  |  |  |  |  |  | pEC50 (HIV [2]): 10.00
CCOP(=O)(COc1c2c(c(O)c3ncccc13)C(=O)N(Cc1ccc(F)cc1)C2)OCC [Compound 2002] |  |  |  |  |  |  | CC50 (in vitro): < 5000 nM; pIC50 (Strand Transfer; read-out: IC50 Strand Transfer): > 6.22; pEC50 (HIV [3]): > 7.70
CCOP(=O)(CN1CCN(C(=O)Oc2c3c(c(O)c4ncccc24)C(=O)N(Cc2ccc(F)cc2)C3)CC1)OCC [Compound 2003] |  |  |  |  |  |  | CC50 [4]: < 5000 nM; pIC50 (Strand Transfer): > 6.22; pEC50 (HIV [3]): > 7.70
COP(=O)(CCN1CCN(C(=O)Oc2c3c(c(O)c4ncccc24)C(=O)N(Cc2ccc(F)cc2)C3)CC1)OC [Compound 2004] |  |  |  |  |  |  | CC50 [4]: < 5000 nM; pIC50 (Strand Transfer): > 6.22; pEC50 (HIV [3]): > 7.70
CCOC(=O)C(C)NP(=O)(CCN(C)C(=O)c1c2c(c(O)c3ncccc13)C(=O)N(Cc1ccc(F)cc1)C2)Oc1ccccc1 (centres unmarked) [Compound 2008] | 15 | 1.8 L/kg | 0.733 | 1.95 | 0.5% | 19551 | Papp (Caco-2 permeability; human, Caco-2, read-out: Papp): 0.1 ×10⁻⁶ cm/s
CCOC(=O)[C@H](C)NP(=O)(CCNC(=O)c1c2c(c(O)c3ncccc13)C(=O)N(Cc1ccc(F)cc1)C2)N[C@@H](C)C(=O)OCC [Compound 2007] | 58.3 | 4 L/kg | 3.23 | 2.65 |  |  | Papp (Caco-2 permeability; Caco-2): BQL
CCOC(=O)[C@H](C)NP(=O)(CCN(C)C(=O)c1c2c(c(O)c3ncccc13)C(=O)N(Cc1ccc(F)cc1)C2)OCC(F)(F)F (some centres unmarked) [Compound 2017] |  |  |  |  |  |  | pEC50 (HIV [2]): 9.00
CCOC(=O)[C@H](C)NP(=O)(CCN(C)C(=O)c1c2c(c(O)c3ncccc13)C(=O)N(Cc1ccc(F)cc1)C2)OCC(F)(F)F (some centres unmarked) [Compound 2009] | 43.3 | 3 L/kg | 1.22 |  | 7% |  | Papp (Caco-2 permeability; human, Caco-2, read-out: Papp): 1 to 4 ×10⁻⁶ cm/s
CCOC(=O)[C@H](C)OP(=O)(CCN1CCN(C(=O)c2c3c(c(O)c4ncccc24)C(=O)N(Cc2ccc(F)cc2)C3)CC1)Oc1ccccc1 (some centres unmarked) [Compound 2011] | 76.7 | 9.1 L/kg | 0.733 | 1.4 | 0.3% | 4810 | 
CCOC(=O)[C@H](C)OP(=O)(CCN1CCN(C(=O)Oc2c3c(c(O)c4ncccc24)C(=O)N(Cc2ccc(F)cc2)C3)CC1)Oc1ccccc1 (some centres unmarked) [Compound 2005] | 60 | 10.8 L/kg | 1.07 | 1.65 | 3% | 5291 | CC50 [4]: < 5000 nM; pIC50 (Strand Transfer): > 5.92; pEC50 (HIV [3]): > 7.70
CCOP(=O)(CNC(=O)CCSC1c2c(c(O)c3ncccc3c2OC)C(=O)N1Cc1ccc(F)cc1)OCC (centres unmarked) [Compound 2021] |  |  |  |  |  |  | CC50 (in vitro): < 50000 nM; pIC50 (Strand Transfer; read-out: IC50 Strand Transfer): > 5.92; pEC50 (HIV [3]): > 6.30
CCOC(=O)[C@H](C)NP(=O)(CCCN(C)C(=O)c1c2c(c(O)c3ncccc13)C(=O)N(Cc1ccc(F)cc1)C2)Oc1ccccc1 (some centres unmarked) [Compound 2012] | 12 | 0.7 L/kh | 0.767 | 2.57 | 0.2% | 4831 | Papp (Caco-2 permeability; Caco-2): BQL
O=C(NCc1ccccn1)c1c2c(c(O)c3ncccc13)C(=O)N(Cc1ccc(F)cc1)C2 [Compound 2001] |  |  |  |  |  |  | Papp (Caco-2 permeability; [8]): 5 ×10⁻⁶ cm/s; F Dog (Pharmacokinetics in dog): 28%; Vdb Dog (Pharmacokinetics in dog): 0.8 L/kg; clearance (Pharmacokinetics in dog): 1.17 mL/min/kg; F Rat (Pharmacokinetics in rat): 2%; Vdb Rat (Pharmacokinetics in rat): 8.2 L/kg; clearance (Pharmacokinetics in rat): 183 mL/min/kg
O=C(NCc1ccc(F)cc1)c1nc(N2CCCCS2(=O)=O)c2cccnc2c1O [Compound L-870810, reference compound] |  |  |  |  |  |  | Papp (Caco-2 permeability; [8]): 40 ×10⁻⁶ cm/s; F Dog (Pharmacokinetics in dog): 50%; Vdb Dog (Pharmacokinetics in dog): 0.5 L/kg; clearance (Pharmacokinetics in dog): 1.17 mL/min/kg; F Rat (Pharmacokinetics in rat): 42%; Vdb Rat (Pharmacokinetics in rat): 0.72 L/kg; clearance (Pharmacokinetics in rat): 1.5 mL/min/kg
CCOC(=O)[C@H](C)NP(=O)(CO[C@H](C)CNC(=O)c1c2c(c(O)c3ncccc13)C(=O)N(Cc1ccc(F)cc1)C2)Oc1ccccc1 (some centres unmarked) [Compound 2013] | 15 | 4 L/kg | 0.883 | 1.33 |  | 5774 | Papp (Caco-2 permeability; Caco-2): BQL
CCOC(=O)[C@H](C)NP(=O)(CCNC(=O)c1c2c(c(O)c3ncccc13)C(=O)N(Cc1ccc(F)cc1)C2)Oc1ccccc1 (some centres unmarked) [Compound 2006] | 15 | 0.7 L/kh | 1.73 | 1.63 | BLQ | 7830 | 
CCOC(=O)[C@H](C)NP(=O)(CCN1CCN(C(=O)c2c3c(c(O)c4ncccc24)C(=O)N(Cc2ccc(F)cc2)C3)CC1)Oc1ccccc1 (some centres unmarked) [Compound 2015] | 13 | 0.8 L/kh |  |  |  |  | 
CCOC(=O)[C@H](C)OP(=O)(CCNC(=O)c1c2c(c(O)c3ncccc13)C(=O)N(Cc1ccc(F)cc1)C2)Oc1ccccc1 (some centres unmarked) [Compound 2014] | 16.7 | 1.1 L/kg |  |  | 0.04% |  | 
